These results are taken from patent US20230104487A1, “11-(4-CHLOROPHENYL)-4-(2,3-DIHYDRO-1H-INDOLE-1-CARBONYL)-3,11-DIMETHYL-5,10,DIOXATRICYCLO[7.4.0.0,2,6,]TRIDECA-1,3,6,8-TETRAEN-13-ONE AND DERIVATIVES AS DESTABILIZER OF CRY1 FOR THE TREATMENT OF CIRCADIAN RHYTHM ASSOCIATED DISEASES AND DISORDERS” (KOC UNIVERSITESI, priority 2019, published 2023).

One assay relates to LUC. As to the kind of experiment: LUC degradation control in HEK293T. Type of assay: cell-based, firefly. An excerpt:
To insert Cry1-Luc, Cry2-Luc constructs and only Luc into pcDNA4A-myc-his plasmid, coding sequence of mouse Cry1 and firefly Luciferase in pG5luc plasmid (Addgene) was amplified with primers having EcoRV-NotI and NotI-XhoI flanking sites for Crys and Luc, respectively. Product size was verified by visualizing in agarose gel and product was isolated from the gel by using NucleoSpin PCR and Gel purification kit (Macherey Nagel). pcDNA4A plasmid having Luc was double digested with NotI and XhoI and used as insert; Cry1 pcDNA4A-myc-his and Cry2 pcDNA4A-myc-his plasmids were double digested with NotI and XhoI FastDigest enzymes (Thermo Scientific) and used as host plasmids. Hosts were treated with FASTAP (Thermo Scientific) to prevent self-annealing. After gel isolation and cleaning inserts with Gel purification kit (Macherey Nagel) and destination vectors were ligated by using T4 DNA ligase (Thermo Scientific).
40 ng of Cry1-Luc, Cry2-Luc, mutant Cry1-Luc plasmids or 5 ng Luc plasmid were reverse transfected to 4×10^4 HEK293T cells on opaque 96-well plate with flat bottom via PEI transfection reagent. 24 h after transfection, cells were treated with molecules or solvent (DMSO). […] Luminescence readings were recorded every 10 min at 32° C. for 24 h. Half-life of protein was calculated via one-phase exponential decay fitting function in GraphPad Prism5 software. […]

The target in a further assay is T1, CRY1 (Mus musculus, UniProt P97784).
T1 sequence (P97784 1-606): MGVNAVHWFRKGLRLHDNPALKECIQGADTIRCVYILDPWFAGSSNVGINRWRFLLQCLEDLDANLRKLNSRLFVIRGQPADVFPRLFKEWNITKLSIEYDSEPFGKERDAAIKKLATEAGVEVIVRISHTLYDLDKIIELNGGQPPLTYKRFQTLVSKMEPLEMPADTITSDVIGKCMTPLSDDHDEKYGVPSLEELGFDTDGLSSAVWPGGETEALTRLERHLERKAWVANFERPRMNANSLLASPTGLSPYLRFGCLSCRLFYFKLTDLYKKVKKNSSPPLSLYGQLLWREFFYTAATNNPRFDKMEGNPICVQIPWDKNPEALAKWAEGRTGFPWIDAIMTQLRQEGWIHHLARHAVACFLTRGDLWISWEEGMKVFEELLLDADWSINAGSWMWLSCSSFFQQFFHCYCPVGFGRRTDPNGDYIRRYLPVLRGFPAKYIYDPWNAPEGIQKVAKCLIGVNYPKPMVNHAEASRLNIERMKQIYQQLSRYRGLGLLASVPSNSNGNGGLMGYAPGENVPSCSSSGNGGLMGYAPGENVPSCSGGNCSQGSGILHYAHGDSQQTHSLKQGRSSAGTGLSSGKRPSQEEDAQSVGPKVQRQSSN
The experiment in a line: Pull-down assay with biotinylated molecule, CRY1-HIS-MYC. The class given is binding. The note with it: 50 μM bFORMULA I, 100 μM FORMULA I competitor. The protocol: (§1) 10 μg of Cry1-pcDNA4, Cry2-pcDNA4 or Cry1-T5-pcDNA4 plasmids expressing His and Myc at the C-terminal of CRYs were transfected to HEK293T cell. After 48 h of transfection cells were harvested and lysed in lysis buffer (50 mM Tris pH 7.4, 2 mM EDTA, 1 mM MgCl2, 0.2% NP-40 (v/v), 0.1% sodium deoxycholate (w/v), 1 mM sodium orthovanadate, 1 mM sodium fluoride, and protease inhibitor cocktail (Thermo Scientific)). Lysates were incubated for 10 minutes on ice then mixed gently and incubated for another 10 minutes on ice. Then lysate was centrifuged for 10 minutes at 7000 g at 4° C. 5% of the supernatant was kept for input analysis. Remaining supernatant was divided to three and mixed with 2×binding buffer (100 mM Tris-HCl pH 7.4, 300 mM NaCl, 0.2% NP-40 (v/v), 2 mM sodium orthovanadate, 2 mM sodium fluoride, and protease inhibitor) with 1:1 ratio, incubated with rotation having either of these: a) DMSO, b) biotinylated molecule, c) biotinylated molecule and the competitor for 2 h. During this period NeutrAvidin Agarose resin (Thermo Scientific) was equilibrated with lysis buffer by mixing for 5 minutes via rotation at 4° C. three times. After each mix period, resins were centrifuged at 2500 g at 4° C. for 2 minutes and supernatant was discarded. […] Pulled-down samples were analyzed via western blot.

In assay [1] the target is T2, CRY1-T5 (PHR domain of CRY1) (Mus musculus, UniProt P97784).
T2 construct: CRY1-T5 (the lack of 100 amino acids from C-terminal end); expressed in transfected cells; host or cells: HEK293T (lysate)
T2 sequence (P97784 1-506 limits assumed): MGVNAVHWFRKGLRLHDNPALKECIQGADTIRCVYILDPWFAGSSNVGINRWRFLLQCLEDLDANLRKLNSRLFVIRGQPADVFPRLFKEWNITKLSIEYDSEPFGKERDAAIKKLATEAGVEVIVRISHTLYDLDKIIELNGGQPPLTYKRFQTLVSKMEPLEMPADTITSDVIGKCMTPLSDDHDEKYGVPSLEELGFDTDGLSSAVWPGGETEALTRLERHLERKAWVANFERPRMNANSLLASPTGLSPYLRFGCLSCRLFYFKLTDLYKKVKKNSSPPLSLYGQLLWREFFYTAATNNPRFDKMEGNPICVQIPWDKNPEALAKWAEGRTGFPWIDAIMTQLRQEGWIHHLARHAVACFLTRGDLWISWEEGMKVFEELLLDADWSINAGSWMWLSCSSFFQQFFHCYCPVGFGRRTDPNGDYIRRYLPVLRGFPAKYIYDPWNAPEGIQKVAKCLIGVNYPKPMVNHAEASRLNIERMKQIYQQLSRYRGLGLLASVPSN
As to the kind of experiment: Pull-down assay with biotinylated molecule, CRY1-T5. Type of assay: binding. The note with it: CRY1 lacking 100 C-terminal amino acids. The protocol: as §1

Entries after “also recorded” stand apart in the source; their conditions may differ.

On to `Cc1c(C(=O)N2CCc3ccccc32)oc2ccc3c(c12)C(=O)CC(C)(c1ccc(Cl)cc1)O3` (stereo not drawn) [FORMULA I, 11-(4-chlorophenyl)-4-(2,3-dihydro-1H-indole-1-carbonyl)-3,11-dimethyl-5,10,dioxatricyclo[7.4.0.0,2,6,]trideca-1,3,6,8-tetraen-13-one], for which, in the assay with LUC, the “stability of LUC” value is on record as “no effect on the stability of LUC”. The “physical binding to CRY1 (pull-down)” value at CRY1 is “physically binds to CRY1; also recorded: binds to PHR of CRY1”. Moreover, in assay [1], the “binding to PHR domain (CRY1-T5 pull-down)” value is on record as “bound to the PHR domain”.
